Reference: patent publication US20250353828A1, “SUBSTITUTED BIARYL ENDOCHIN-LIKE QUINOLONES WITH ENHANCED ANTIPARASITIC ACTIVITY” (Oregon Health & Science University, priority 2022, published 2025)

Columns and labels:
[1] = tested on: P. falciparum D6 strain (drug sensitive); assay: In vitro antiplasmodial activity, SYBR Green I assay, D6 strain; assay type: cell-based, Plasmodium falciparum; settings: Plasmodium falciparum; D6 strain; 72 h incubation; averages of quadruplicate with (95% confidence intervals); read-out: P. falciparum IC50 values, nM D6
Experimental: (§1) Rationale for Synthesis of a 3-Biaryl Version of ELQ-300. […] All of this information is stored in a database with information relating to chemical structure, physical chemical properties, cross resistance patterns, mammalian cell cytotoxicity, enzyme inhibitor profiles, and synthesis details. […] We employed the SyBr Green assay and the plates were incubated for 72 hours before harvesting^18, 19. […] Stock solutions were freshly prepared in DMSO.
(§2) Plasmodium falciparum Culture. Laboratory strains of P. falciparum were cultured in human erythrocytes by standard methods. The parasites were grown in culture medium with fresh human erythrocytes maintained at 2% hematocrit at 37° C. in low-oxygen conditions (5% O2, 5% CO2, […] balance N2). […] Cultures were maintained at less than 10% parasitemia by transfer of infected cells to fresh erythrocytes and culture medium every 3 or 4 days.
(§3) In vitro drug susceptibility assays. SYBR green I assay. In vitro antiplasmodial activity was assessed using a published SYBR Green I fluorescence-based method. The drugs were added to 96-well plates using 2-fold serial dilutions in complete medium. […] Asynchronous P. falciparum parasites were diluted with uninfected erythrocytes and added to the wells to give a final culture volume of 100 μl at 2% hematocrit and 0.2% parasitemia. […] The parasites were then lysed by adding 100 μl of SYBR green I lysis buffer containing 0.2 μl/ml SYBR green I dye (10,000×) in 20 mM Tris (pH 7.5), 5 mM EDTA, 0.008% (wt/vol) saponin, and 0.08% (vol/vol) Triton X-100. The plates were incubated at room temperature for an hour in the dark. […] If the IC50 value fell outside of the initial tested range then the range was adjusted up or down and the assay was repeated.

[2] = tested on: P. falciparum Tm90-C2B (atovaquone-resistant clinical isolate); assay: In vitro antiplasmodial activity, SYBR Green I assay, Tm90-C2B; assay type: cell-based; settings: Plasmodium falciparum; Tm90-C2B strain; 72 h incubation; averages of quadruplicate with (95% confidence intervals); read-out: P. falciparum IC50 values, nM Tm90-C2B
Experimental: as §1, §2, §3

Compound | IC50 [1] [nM] | IC50 [2] [nM]
COc1ccc(-c2ccc(-c3c(C)[nH]c4cc(OC)c(Cl)cc4c3=O)cc2)cc1 [ELQ-645, 6-chloro-7-methoxy-3-(4′-methoxy-[1,1′-biphenyl]-4-yl)-2-methylquinolin-4(1H)-one] | 5 | 6
Cc1[nH]c2ccccc2c(=O)c1-c1ccc(-c2ccc(OC(F)(F)F)cc2)cc1 [ELQ-649, 2-methyl-3-(4′-(trifluoromethoxy)-[1,1′-biphenyl]-4-yl)quinolin-4(1H)-one] | 7.9 | 6
Cc1[nH]c2cc(F)cc(F)c2c(=O)c1-c1ccc(-c2ccc(OC(F)(F)F)cc2)cc1 [ELQ-601, 5,7-difluoro-2-methyl-3-(4′-(trifluoromethoxy)-[1,1′-biphenyl]-4-yl)quinolin-4(1H)-one] | – | 24.5
COc1cc2[nH]c(C)c(-c3ccc(-c4ccc(C#N)cc4)cc3)c(=O)c2cc1Cl [ELQ-602, 4′-(6-chloro-7-methoxy-2-methyl-4-oxo-1,4-dihydroquinolin-3-yl)-[1,1′-biphenyl]-4-carbonitrile] | 4.8 | 10.9
COc1cc2[nH]c(C)c(-c3ccc(-c4ccc(C(F)F)cc4)cc3)c(=O)c2cc1Cl [ELQ-659, 6-chloro-3-(4′-(difluoromethyl)-[1,1′-biphenyl]-4-yl)-7-methoxy-2-methylquinolin-4(1H)-one] | 1.8 | 0.57
COc1cc2[nH]c(C)c(-c3ccc(-c4cccc(OC(F)(F)F)c4)cc3)c(=O)c2cc1Cl [ELQ-604, 6-chloro-7-methoxy-2-methyl-3-(3′-(trifluoromethoxy)-[1,1′-biphenyl]-4-yl)quinolin-4(1H)-one] | 0.6 | 0.5
Cc1[nH]c2c(c(=O)c1-c1ccc(-c3ccc(OC(F)(F)F)cc3)cc1)CCCC2 [ELQ-660] | 15.6 | 7.9

The remaining molecules from weak to strong by IC50 [2], led by results:

IC50 [1] [nM] | IC50 [2] [nM] | Compound
3.9 | 5.9 | COc1cc2[nH]c(C)c(-c3ccc(-c4ccc(OC(F)F)cc4)cc3)c(=O)c2cc1Cl [ELQ-600, 6-chloro-3-(4′-(difluoromethoxy)-[1,1′-biphenyl]-4-yl)-7-methoxy-2-methylquinolin-4(1H)-one]
3.5 | 3.5 | COc1cc2[nH]c(C)c(-c3ccc(-c4ccc(C(F)(F)F)cc4)cc3)c(=O)c2cc1Cl [ELQ-647, 6-chloro-7-methoxy-2-methyl-3-(4′-(trifluoromethyl)-[1,1′-biphenyl]-4-yl)quinolin-4(1H)-one]
3.4 | 3 | COc1cc2[nH]c(C)c(-c3ccc(-c4ccc(Cl)cc4)cc3)c(=O)c2cc1Cl [ELQ-637, 6-chloro-3-(4′-chloro-[1,1′-biphenyl]-4-yl)-7-methoxy-2-methylquinolin-4(1H)-one]
1 | 1.5 | COc1cc2[nH]c(C)c(-c3ccc(-c4ccc(C)cc4)cc3)c(=O)c2cc1Cl [ELQ-603, 6-chloro-7-methoxy-2-methyl-3-(4′-methyl-[1,1′-biphenyl]-4-yl)quinolin-4(1H)-one]
1.1 | 1 | COc1cc2[nH]c(C)c(-c3ccc(-c4cccc(C(F)(F)F)c4)cc3)c(=O)c2cc1Cl [ELQ-646, 6-chloro-7-methoxy-2-methyl-3-(3′-(trifluoromethyl)-[1,1′-biphenyl]-4-yl)quinolin-4(1H)-one]
1.5 | 0.88 | COc1cc2[nH]c(C)c(-c3ccc(-c4ccc(Oc5ccc(OC(F)(F)F)cc5)cc4)cc3)c(=O)c2cc1Cl [ELQ-653]
1.1 | 0.49 | COc1cc2[nH]c(C)c(-c3ccc(-c4ccc(C(C)(C)C)cc4)cc3)c(=O)c2cc1Cl [ELQ-651, 3-(4′-(tert-butyl)-[1,1′-biphenyl]-4-yl)-6-chloro-7-methoxy-2-methylquinolin-4(1H)-one]
0.8 | 0.4 | COc1cc2[nH]c(C)c(-c3ccc(-c4ccc(OC(F)(F)F)cc4)cc3)c(=O)c2cc1F [ELQ-650, 6-fluoro-7-methoxy-2-methyl-3-(4′-(trifluoromethoxy)-[1,1′-biphenyl]-4-yl)quinolin-4(1H)-one]
